Test results taken from US20240209355A1, “NUCLEIC ACID BINDING PROTEIN FORMULATIONS AND USES THEREOF” (Spotlight Therapeutics, priority 2020, published 2024).
Values joined by “and” are separate entries in the source; they are usually repeats but may differ in a detail not shown here. Identical values can stand only once.

Legend:
primary human T cells [1] = assay: Editing by TAGE after pre-incubation of cells with inhibitors, loss of surface CD47 by flow cytometry; format: cell-based; conditions: 30 min pre-incubation; for editing of primary T cells by TAGE: DMA, EIPA 100 μM, Cyto D 20 μM, Lat A 10 μM, 3 μM TAGE26, 0.35 μM AB27-TAGE26 or AB2-TAGE26; for editing of primary T cells by an antibody TAGE: Dynasore 80 μM
Method: Antibodies were conjugated to Cas9 using the SpyTag2/SpyCatcher system and a guide RNA targeting CD47 was associated with the respective TAGE agents to form RNPs. Primary human T cells were pre-incubated with the indicated drug for 30 minutes. Then, RNPs were added to the cells at the indicated concentration and co-incubated for an additional hour. The cells were washed after one hour to remove inhibitors and RNPs. The percentage of cells that were edited under each condition was measured using a phenotypic readout detecting the loss of surface CD47 by flow cytometry.
Each data point represents a biological replicate. For each group, the horizontal line represents the mean and the error bars represent the standard deviation of the mean. With respect to the descriptions in FIG. 18, NT guide is a TAGE with non-targeting guide RNA; MeOH is methanol (a control for DMA and EIPA; used at 0.5% v/v; DMSO is dimethyl sulfoxide, a control for Cyto D and Lat A (used at 1% v/v); DMA is 5-(N,N-dimethyl)-amiloride, an inhibitor of NHE1 (used at 100 μM); EIPA is 5-(N-ethyl-N-isopropyl)-amiloride, an inhibitor of NHE1, (used at 100 μM); Cyto D is cytochalasin D, an inhibitor of F-actin polymerization (used at 20 μM); and Lat A is latrunculin A, an inhibitor of F-actin polymerization (used at 10 μM).
Antibodies were conjugated to Cas9 using the SpyTag/SpyCatcher system and a guide RNA targeting CD47 was associated with the respective TAGE agents to form an RNP. Primary human T cells were pre-incubated with the indicated drug (nystatin or Dynasore) for 30 minutes. Then, RNPs were added to cells at the indicated concentration and co-incubated for an additional hour. The cells were washed after one hour to remove inhibitors and RNPs. The percentage of cells that were edited under each condition was measured using a phenotypic readout detecting the loss of surface CD47 by flow cytometry. Each data point represents a biological replicate. For each group, the horizontal line represents the mean and the error bars represent the standard deviation of the mean. NT guide stood for TAGE with non-targeting guide RNA. DMSO is dimethylsulfoxide, a control for nystatin and Dynasore, which was used at 2% v/v. Dynasore is an inhibitor of dynamin, which was used at 80 μM. Nystatin was used at 108 μM.

[2] = Light scattering at 340 nm to detect aggregate formation with protamine; format: physicochemical; conditions: protamine in buffer
Method: (§1) In this example, the impact of a cationic polymer (e.g., protamine) with or without glycerol on ex vivo editing by RNP TAGE agents was assessed. Ribonucleoproteins were prepared from TAGE agents including 4×NLS-Cas9-2×NLS or AsCas12a. A guide RNA targeting CD47 was associated with the respective TAGE agents to form ribonucleoproteins. […] The cells were washed after one hour to remove additives and RNPs. The percentage of T cells that were edited under each condition was measured using a phenotypic readout detecting the loss of surface CD47 by flow cytometry. Additionally, the levels of light scattering at 340 nm was assessed to detect aggregate formation.

primary human T cells [3] = assay: Ex vivo editing by co-incubation in buffers with additives, loss of surface CD47 by flow cytometry; format: cell-based; conditions: for TAGE editing efficacy: additive in combination with NaCl; for genome editing (percentage of edited T cells): 1 hour, increasing NaCl (185-400 mM) and/or glycerol (1-15% w/v); for combined effect of glycerol and sodium chloride on genome editing: e.g. 300 mM NaCl with 12.5% glycerol
Method: In this example, the impact of glycerol and salt on ex vivo editing by TAGE agents was assessed. Ribonucleoproteins were prepared from TAGE agents including 4×NLS-Cas9-2×NLS. A guide RNA targeting CD47 was associated with the respective TAGE agents to form ribonucleoproteins. […] The cells were washed after one hour to remove the additives and RNPs. The percentage of T cells that were edited under each condition was measured using a phenotypic readout detecting the loss of surface CD47 by flow cytometry. Additionally, the levels of live cells per mL 24 hours after co-incubation in the indicated buffer was assessed for each buffer condition.
In this example, the impact of salt and various polyols (e.g., sugar alcohols) or sugar on ex vivo editing by TAGE agents was assessed. Ribonucleoproteins were prepared from TAGE agents including 4×NLS-Cas9-2×NLS. A guide RNA targeting CD47 was associated with the respective TAGE agents to form ribonucleoproteins. […] Buffers having different salt concentrations (185 mM NaCl or 300 mM NaCl) and sugar alcohol or sugar concentrations ([…], 0.8 M, 1.2 M, 1.6 M, 2.0 M, or 2.4 M) were assessed. The cells were washed after one hour to remove additives and RNPs. The percentage of cells that were edited under each condition was measured using a phenotypic readout detecting the loss of surface CD47 by flow cytometry. Additionally, the levels of live cells per mL 24 hours after co-incubation in the indicated buffer was assessed for each buffer condition.
as §1, with “formation. […]” for “formation.”

dsDNA target = assay: In vitro DNA cleavage of TAGE agent RNPs with re-folded or unfolded sgRNA; format: biochemical; conditions: PBS, relative to Cas9(C80A)-2×NLS
Method: To assess DNA cleavage, 100 nM of each Cas9 RNP was incubated for 30 minutes at 37° C. with 100 nM of a dsDNA target. DNA cleavage was normalized to DNA cleavage achieved through incubation in buffer alone (i.e., untreated RNP). 1 μl of 20 mg/ml proteinase K was added to the reaction and incubated for 15 minutes at 50° C. The quenching reaction was held at 4° C. prior to separation on a Fragment Analyzer capillary electrophoresis (CE) instrument. 2 μl of the reaction was diluted with 22 μl of TE buffer and analyzed by capillary electrophoresis, per the manufacturer's recommendations. Cleavage reactions were run in triplicate, and background was subtracted from the band intensities. Percent cleavage was quantified with the following equation: % cleavage=(total mass cleaved product)/(total mass of substrate). The results are expressed as % cleavage relative to untreated RNP.
Next, the impact of re-folded gRNA on the in vitro DNA cleavage activity of TAGE agent RNPs was assessed.

primary human T cells [4] = assay: Editing by antibody TAGE or CPP-TAGE in T cell media with sugar, sugar alcohol or salt additive, loss of surface CD47 by flow cytometry; format: cell-based
Method: RNPs at the indicated concentration were co-incubated with primary human T cells for 1 hour in buffer including 0.5 M sucrose. The cells were washed after one hour to remove additives and RNPs. The editing percentage under each condition was measured using a phenotypic readout detecting the loss of surface CD47 by flow cytometry.
Five different TAGE agent were tested. […] The cells were washed after one hour to remove additives and RNPs. The percentage of cells that were edited under each condition was measured using a phenotypic readout detecting the loss of surface CD47 by flow cytometry. Each data point represents the mean of biological triplicates, and the error bars represent the standard deviation of the mean.
The cells were washed after one hour to remove additives and RNPs. The percentage of cells that were edited under each condition was measured using a phenotypic readout detecting the loss of surface CD47 by flow cytometry. Each data point represents a biological replicate. […]
RNP at the indicated concentration was co-incubated with primary human T cells for 1 hour in T cell media with no additive (Baseline) or in T cell media with 0.5 M sucrose. […] The percentage of cells that were edited under each condition was measured using a phenotypic readout detecting the loss of surface CD47 by flow cytometry. […]

T cells = assay: Ex vivo editing with chloroquine, loss of surface CD47 by flow cytometry; format: cell-based, human; conditions: chloroquine 10, 30 or 100 μM for 24 hours after 1 hour RNP co-incubation with PBMCs, vs 0 μM
Method: FIG. 9 graphically depicts the results of an ex vivo editing assay in which TAGE agents including Cas9-2×NLS:sgBFP, 4×NLS-Cas9-2×NLS, Cas9-2×NLS-SpyCatcher-4×NLS, or IL-2[-SpyTag]:Cas9-2×NLS-SpyCatcher-4×NLS were co-incubated with primary human T cells and assessed for editing in buffers including different levels of chloroquine (0 μM, 10 μM, 30 μM, or 100 μM). A guide RNA targeting CD47 was associated with the respective TAGE agents to form ribonucleoproteins, and the ribonucleoproteins were co-incubated with T cells to test for editing. Editing was measured using a phenotypic readout measuring the loss of surface CD47 using flow cytometry.
In this example, the impact of chloroquine on ex vivo editing by TAGE agents was assessed. RNP TAGE agents including Cas9-2×NLS:sgBFP, 4×NLS-Cas9-2×NLS, Cas9-2×NLS-SpyCatcher-4×NLS, or IL-2-SpyTag:Cas9-2×NLS-SpyCatcher-4×NLS. A guide RNA targeting CD47 (or a non-targeting control, sgBFP) was associated with the respective TAGE agents to form the ribonucleoproteins. The RNPs were co-incubated with PBMCs for 1 hour followed by incubation with 0 μM chloroquine, 10 μM chloroquine, 30 μM chloroquine, or 100 μM chloroquine for 24 hours. The percentage of T cells that were edited by each TAGE was measured using a phenotypic readout detecting the loss of surface CD47 by flow cytometry.

Molecule: CN(C)c1nc(N)c(C(=O)NC(=N)N)nc1Cl [DMA, 5-(N,N-dimethyl)-amiloride]
- editing of primary T cells by TAGE (primary human T cells [1]): increased

Molecule: protamine
- aggregation of Cas12a (340 nm light scattering) [2]: did not cause appreciable Cas12a aggregation
- aggregation of 4×NLS-Cas9-2×NLS (340 nm light scattering) ([2]; low glycerol concentrations): caused aggregation
- editing by Cas12a (primary human T cells [3]; protamine in buffer): limited benefits for Cas12a editing
- editing by 4×NLS-Cas9-2×NLS (primary human T cells [3]; protamine in buffer, low glycerol concentrations): increased editing

Molecule: 4×NLS-Cas9(C80A)-2×NLS: TAGE agent: Cas9(C80A) with four N-terminal and two C-terminal NLS
- DNA cleavage activity (dsDNA target): reduced activity in PBS

Molecule: C[C@@H]1[C@H](O)[C@@H](C)/C=C/C=C/CC/C=C/C=C/C=C/C=C/C(O[C@H]2O[C@H](C)[C@@H](O)[C@H](N)[C@@H]2O)CC2O[C@](O)(CC(O)C(O)CCC(O)CC(O)CC(O)CC(=O)O[C@H]1C)CC(O)C2C(=O)O (stereo partly shown) [nystatin]
- editing by TAGE containing a non-targeting antibody (AB27-TAGE26) (primary human T cells [1]; nystatin 108 μM): did not increase editing
- editing of primary T cells by an antibody TAGE (primary human T cells [1]; nystatin 108 μM): increased

Molecule: OC[C@H]1O[C@@](CO)(O[C@H]2O[C@H](CO)[C@@H](O)[C@H](O)[C@H]2O)[C@@H](O)[C@@H]1O [sucrose]
- TAGE editing efficacy (primary human T cells [3]; 3.75 μM 4×NLS-Cas9-2×NLS RNP): can increase TAGE editing efficacy
- lowest TAGE concentration at which editing is enabled (primary human T cells [4]; 0.5 M sucrose): 0.7 nM
- effect of additive on editing (primary human T cells [4]; 0.5 M sucrose as formulation additive): improves editing

Molecule: CCN(CC)CCCC(C)Nc1ccnc2cc(Cl)ccc12 (stereo not shown) [chloroquine]
- editing of T cells by TAGE RNPs (T cells): increased editing of T cells

Molecule: OC[C@@H](O)[C@H](O)[C@@H](O)CO [xylitol]
- percentage of edited cells (primary human T cells [3]; 3.75 μM 4×NLS-Cas9-2×NLS RNP, 300 mM NaCl and ≥1 M xylitol): over 50%
- TAGE editing efficacy (primary human T cells [3]; 3.75 μM 4×NLS-Cas9-2×NLS RNP): can increase TAGE editing efficacy

Molecule: CCN(c1nc(N)c(C(=O)N=C(N)N)nc1Cl)C(C)C [EIPA, 5-(N-ethyl-N-isopropyl)-amiloride]
- editing of primary T cells by TAGE (primary human T cells [1]): increased

Molecule: O=C(N/N=C/c1ccc(O)c(O)c1)c1cc2ccccc2cc1O [dynasore, Dynasore]
- editing of primary T cells by an antibody TAGE (primary human T cells [1]; nystatin 108 μM): not increased

Molecule: poly-glutamic acid [PGA]
- editing by co-incubation (primary human T cells [3]; 3.75 μM Cas9 or AsCas12a RNP, PGA 1500-5500 Da or 15,000 Da, also at lower concentrations): inhibited editing by co-incubation

Molecule: C=C1[C@@H](C)[C@H]2[C@H](Cc3ccccc3)NC(=O)[C@]23[C@H](OC(C)=O)/C=C/[C@@](C)(O)C(=O)[C@@H](C)C/C=C/[C@H]3[C@@H]1O [Cyto D, cytochalasin D]
- editing of primary T cells by TAGE (primary human T cells [1]): decreased

Molecule: [Cl-].[Na+] [sodium chloride]
- genome editing (percentage of edited T cells) (primary human T cells [3]; 3.75 μM 4×NLS-Cas9-2×NLS RNP): increased genome editing in cells
- combined effect of glycerol and sodium chloride on genome editing (primary human T cells [3]; 3.75 μM 4×NLS-Cas9-2×NLS RNP): synergistic effect on genome editing

Molecule: OCC(O)CO [glycerol]
- genome editing (percentage of edited T cells) (primary human T cells [3]; 3.75 μM 4×NLS-Cas9-2×NLS RNP): increased genome editing in cells
- combined effect of glycerol and sodium chloride on genome editing (primary human T cells [3]; 3.75 μM 4×NLS-Cas9-2×NLS RNP): synergistic effect on genome editing
- TAGE editing efficacy (primary human T cells [3]; 3.75 μM 4×NLS-Cas9-2×NLS RNP): can increase TAGE editing efficacy
- glycerol concentration at peak editing ex vivo (primary human T cells [3]; human T cells, depending on the TAGE and the salt concentration): 7-10% and 15-16%

Molecule: C/C1=C/C(=O)O[C@@H]2C[C@@H](CC[C@H](C)/C=C\C=C\CC1)O[C@@](O)([C@@H]1CSC(=O)N1)C2 [Lat A, latrunculin A]
- editing of primary T cells by TAGE (primary human T cells [1]): decreased
